Test results reported in patent publication US6969609B1 (priority 1998, dated 2005).

Tested on: CAP-M8-specific CD8^+ effector T-cell line
Format: cell-based, murine

Substance: TNF-α
- increase in peptide-specific proliferation over unmanipulated DC: 28%
